# Patent publication US20230174554A1, “SOLID FORM OF MACROCYCLIC COMPOUND, PREPARATION THEREFOR AND USE THEREOF” (Shenzhen TargetRx. Inc., priority 2020, published 2023)
# Experiments:
# Format in all cases: physicochemical
# [1] = Stability influencing factor tests of compound A crystal form I (high temperature, high humidity, illumination)
# Description: Stability influencing factor tests were carried out on the samples of compound A crystal form I. The corresponding placement conditions and test results are listed in Table 5.
# [2] = Solubility and stability of the free base and crystalline salts in water, SGF, FaSSIF and FeSSIF; conditions: for Crystal form / crystallinity in the vehicle: XRPD
# Description: The solubility and stability of compound A crystal form, compound A maleate crystal form I and compound A acetate crystal form I in water, SGF (simulated gastric fluid), FaSSIF (simulated intestinal fluid in fasted state) and FeSSIF (simulated intestinal fluid in fed state) were studied.
# [3] = Solubility of the starting material (compound A crystal form I) in different solvents
# [4] = Accelerated stability study of the free base and crystalline salts (40° C./75% RH and 60° C., HPLC and XRPD)
# Description: The crystals were tested for HPLC and XRPD in different time points.
# [5] = Dynamic moisture adsorption and desorption analysis (DVS), hygroscopicity, XRPD after test
# Description: The samples were tested for hygroscopicity using DVS Intrinsic (SMS, UK). 30-50 mg of a sample was placed into a sample pan, and the change of sample mass with humidity at 25° C. was recorded. The instrument parameters were:
# After the hygroscopicity test was completed, the crystal form of the sample was tested by XRPD.
# [6] = Competitive slurrying testing at room temperature (trans-crystallization); conditions: isobutanol, isopropanol and methyl tert-butyl ether, one day
# Description: 10 mg of compound A crystal form I, crystal form IV, crystal form V and crystal form VI were added to 500 μL of three different solvent systems (isobutanol, isopropanol and methyl tert-butyl ether), respectively. The mixture was slurried at room temperature for one day. The solids were dried at 50° C. under vacuum overnight and characterized by XRPD.
# [7] = Heating study to 190° C. with XRPD (trans-crystallization); conditions: heated to 190° C.
# Description: A certain amount of compound A crystal form V and VI were weighed, heated to 190° C. and then characterized by XRPD.
# [8] = High humidity (92.5% RH/25° C.), 0 days
# [9] = High humidity (92.5% RH/25° C.), 5 days
# [10] = High humidity (92.5% RH/25° C.), 10 days
# [11] = High humidity (92.5% RH/25° C.), 37 days
# [12] = High temperature (60° C.), 0 days
# [13] = High temperature (60° C.), 5 days
# [14] = High temperature (60° C.), 10 days
# [15] = High temperature (60° C.), 37 days
# [16] = Illumination (1.2*10^6 Lux · hr, 200 w · hr/m^2), 0 days
# [17] = Illumination (1.2*10^6 Lux · hr, 200 w · hr/m^2), 5 days
# [18] = Illumination (1.2*10^6 Lux · hr, 200 w · hr/m^2), 10 days
# [19] = FaSSIF (simulated intestinal fluid in fasted state), 37 °C, fassif, thermodynamic from solid, sample 10 mg/ml
# [20] = FeSSIF (simulated intestinal fluid in fed state), 37 °C, fessif, thermodynamic from solid, sample 10 mg/ml
# [21] = SGF (simulated gastric fluid), 37 °C, simulated gastric fluid, thermodynamic from solid, SGF, sample 10 mg/ml
# [22] = water, thermodynamic from solid, H2O, room temperature, sample 5 mg/ml
structure (smiles),measurement,setting,value
"[2H]C([2H])([2H])n1nc2c(c1C#N)-c1cnc(N)c(c1)O[C@H](C)c1cc(F)ccc1C(=O)N(C)C2 [compound A crystal form I, (10R)-7-amino-12-fluoro-2-(methyl-d3)-10,16-dimethyl-15-oxo-10,15,16,17-tetrahydro-2H-8,4-(metheno)pyrazolo[4,3-h][2,5,11]benzoxadiazacyclotetradecine-3-carbonitrile]",Content,[1]; [8],99.9%
same,Shape,[1]; [8],White solid
same,Total impurity content,[1]; [8],<0.05%
same,Content,[1]; [9],99.5%
same,Shape,[1]; [9],White solid
same,Total impurity content,[1]; [9],<0.05%
same,Content,[1]; [10],99.7%
same,Shape,[1]; [10],White solid
same,Total impurity content,[1]; [10],<0.05%
same,Content,[1]; [11],99.4%
same,Shape,[1]; [11],White solid
same,Total impurity content,[1]; [11],<0.05%
same,Content,[1]; [12],99.9%
same,Shape,[1]; [12],White solid
same,Total impurity content,[1]; [12],<0.05%
same,Content,[1]; [13],98.8%
same,Shape,[1]; [13],White solid
same,Total impurity content,[1]; [13],<0.05%
same,Content,[1]; [14],100.4%
same,Shape,[1]; [14],White solid
same,Total impurity content,[1]; [14],<0.05%
same,Content,[1]; [15],99.8%
same,Total impurity content,[1]; [15],<0.05%
same,Content,[1]; [16],99.9%
same,Shape,[1]; [16],White solid
same,Total impurity content,[1]; [16],<0.05%
same,Content,[1]; [17],98.7%
same,Total impurity content,[1]; [17],<0.05%
same,Content,[1]; [18],99.1%
same,Total impurity content,[1]; [18],<0.05%
same,solubility at 0.5 h,[2]; [19],170 µg/mL
same,solubility at 24 h,[2]; [19],110 µg/mL
same,Solubility,"[2]; FaSSIF (simulated intestinal fluid in fasted state), fassif, thermodynamic from solid, FaSSIF (simulated intestinal fluid in fasted state), read-out: Solubility",< 3000 µg/mL
same,Crystal form / crystallinity in the vehicle,[2]; FaSSIF,nearly amorphous
same,solubility at 0.5 h,[2]; [20],550 µg/mL
same,solubility at 24 h,[2]; [20],380 µg/mL
same,Solubility,"[2]; FeSSIF (simulated intestinal fluid in fed state), fessif, thermodynamic from solid, FeSSIF (simulated intestinal fluid in fed state), read-out: Solubility",< 3000 µg/mL
same,Crystal form / crystallinity in the vehicle,[2]; FeSSIF,nearly amorphous
same,solubility at 0.5 h,[2]; [21],10900 µg/mL
same,solubility at 24 h,[2]; [21],10200 µg/mL
same,Solubility,"[2]; SGF (simulated gastric fluid), simulated gastric fluid, thermodynamic from solid, SGF (simulated gastric fluid), read-out: Solubility",> 5000 µg/mL
same,Solubility,[2]; water,< 3000 µg/mL
same,Crystal form / crystallinity in the vehicle,[2]; water,not changed
same,solubility at 0.5 h,[2]; [22],110 µg/mL
same,solubility at 24 h,[2]; [22],95 µg/mL
same,Solubility,"[2]; water, listed as free base",less than 0.2 mg/mL
same,Solubility,[3]; Acetone,~246000 µg/mL
same,Solubility,"[3]; Acetone, listed as starting material",greater than 100 mg/mL
same,Solubility,[3]; Acetonitrile,~183000 µg/mL
same,Solubility,[3]; Butanone,~173000 µg/mL
same,Solubility,[3]; Dichloromethane,~240000 µg/mL
same,Solubility,"[3]; Dichloromethane, listed as starting material",greater than 100 mg/mL
same,Solubility,[3]; Ethanol,~21000 µg/mL
same,Solubility,[3]; Ethyl acetate,~100000 µg/mL
same,Solubility,[3]; Isobutanol,~1700 µg/mL
same,Solubility,[3]; Isopropanol,~2500 µg/mL
same,Solubility,"[3]; Isopropanol, listed as starting material",1000 to 2000 µg/mL
same,Solubility,[3]; Isopropyl acetate,~22000 µg/mL
same,Solubility,[3]; Methanol,~190000 µg/mL
same,Solubility,[3]; Methyl tert-butyl ether,~2500 µg/mL
same,Solubility,"[3]; Methyl tert-butyl ether, listed as starting material",1000 to 2000 µg/mL
same,Solubility,[3]; Tetrahydrofuran,~215000 µg/mL
same,Solubility,"[3]; Tetrahydrofuran, listed as starting material",greater than 100 mg/mL
same,Solubility,"[3]; acetonitrile, organic solvent or mixture, thermodynamic from solid, Acetonitrile, read-out: Solubility",> 100000 µg/mL
same,Solubility,"[3]; butanone, organic solvent or mixture, thermodynamic from solid, Butanone, read-out: Solubility",> 100000 µg/mL
same,Solubility,"[3]; ethanol, organic solvent or mixture, thermodynamic from solid, Ethanol, read-out: Solubility",~20000 µg/mL
same,Solubility,"[3]; ethyl acetate, organic solvent or mixture, thermodynamic from solid, Ethyl acetate, read-out: Solubility",> 100000 µg/mL
same,Solubility,"[3]; isobutanol, organic solvent or mixture, thermodynamic from solid, Isobutanol, read-out: Solubility",1000 to 2000 µg/mL
same,Solubility,"[3]; isopropyl acetate, organic solvent or mixture, thermodynamic from solid, Isopropyl acetate, read-out: Solubility",~20000 µg/mL
same,Solubility,"[3]; methanol, organic solvent or mixture, thermodynamic from solid, Methanol, read-out: Solubility",> 100000 µg/mL
same,Solubility,[3]; water,~1000 µg/mL
same,Solubility,"[3]; water, thermodynamic from solid, Water, read-out: Solubility",1000 to 2000 µg/mL
same,Purity %,[4]; 0 days; HPLC,99.2%
same,Crystal form,[4]; 0 days; XRPD,Unchanged
same,Crystal form,"[4]; 40° C./75% RH, 7 days, XRPD",not changed
same,Purity,"[4]; 40° C./75% RH, 7 days; HPLC",not changed
same,Purity %,"[4]; 40° C./75% RH, 7 days; HPLC",99.4%
same,Crystal form,"[4]; 40° C./75% RH, 7 days; XRPD",Unchanged
same,Crystal form,"[4]; 60° C., 7 days, XRPD",not changed
same,Purity,"[4]; 60° C., 7 days; HPLC",not changed
same,Purity %,"[4]; 60° C., 7 days; HPLC",99.3%
same,Crystal form,"[4]; 60° C., 7 days; XRPD",Unchanged
same,Crystal form before and after the DVS test,[5]; XRPD,not changed
same,DVS weight gain,"[5]; humidity increased from 0% RH to 80% RH, 25° C.",0.17%
"[2H]C([2H])([2H])n1nc2c(c1C#N)-c1cnc(N)c(c1)O[C@H](C)c1cc(F)ccc1C(=O)N(C)C2 [compound A crystal form IV, (10R)-7-amino-12-fluoro-2-(methyl-d3)-10,16-dimethyl-15-oxo-10,15,16,17-tetrahydro-2H-8,4-(metheno)pyrazolo[4,3-h][2,5,11]benzoxadiazacyclotetradecine-3-carbonitrile]",Trans-crystallization on competitive slurrying,[6],trans-crystallized to crystal form I
"[2H]C([2H])([2H])n1nc2c(c1C#N)-c1cnc(N)c(c1)O[C@H](C)c1cc(F)ccc1C(=O)N(C)C2 [compound A crystal form V, (10R)-7-amino-12-fluoro-2-(methyl-d3)-10,16-dimethyl-15-oxo-10,15,16,17-tetrahydro-2H-8,4-(metheno)pyrazolo[4,3-h][2,5,11]benzoxadiazacyclotetradecine-3-carbonitrile]",Crystal form after heating,[7],transformed into crystal form I
